Measurements reported in ChEMBL document CHEMBL3351445, “Potent 11β-hydroxylase inhibitors with inverse metabolic stability in human plasma and hepatic S9 fractions to promote wound healing” (J Med Chem, 2014).

Legend:
[1] = biological target: T1, Cytochrome P450 11B2, mitochondrial (Homo sapiens, UniProt P19099); assay: Inhibition of human CYP11B2 expressed in hamster V79MZh cells using [1,2-3H]-11-deoxycorticosterone as substrate
T1 sequence (P19099 whole entry): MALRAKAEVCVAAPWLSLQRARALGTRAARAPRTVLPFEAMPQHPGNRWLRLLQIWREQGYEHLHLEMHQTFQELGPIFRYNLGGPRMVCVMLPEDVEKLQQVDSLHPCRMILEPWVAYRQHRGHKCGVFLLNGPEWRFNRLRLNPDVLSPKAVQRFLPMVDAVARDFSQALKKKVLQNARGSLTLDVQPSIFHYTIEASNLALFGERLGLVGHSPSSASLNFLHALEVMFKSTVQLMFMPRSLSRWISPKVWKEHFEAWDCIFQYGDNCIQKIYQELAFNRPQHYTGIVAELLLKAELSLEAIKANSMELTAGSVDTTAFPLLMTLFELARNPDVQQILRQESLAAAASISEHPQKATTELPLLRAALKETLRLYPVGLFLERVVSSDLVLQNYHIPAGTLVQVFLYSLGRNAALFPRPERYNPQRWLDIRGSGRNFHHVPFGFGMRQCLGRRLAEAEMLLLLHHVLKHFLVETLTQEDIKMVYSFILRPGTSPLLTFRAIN

[2] = biological target: T2, Cytochrome P450 11B1, mitochondrial (Homo sapiens, UniProt P15538); assay: Inhibition of human CYP11B1 expressed in hamster V79MZh cells using [1,2-3H]-11-deoxycorticosterone as substrate
T2 sequence (P15538 whole entry): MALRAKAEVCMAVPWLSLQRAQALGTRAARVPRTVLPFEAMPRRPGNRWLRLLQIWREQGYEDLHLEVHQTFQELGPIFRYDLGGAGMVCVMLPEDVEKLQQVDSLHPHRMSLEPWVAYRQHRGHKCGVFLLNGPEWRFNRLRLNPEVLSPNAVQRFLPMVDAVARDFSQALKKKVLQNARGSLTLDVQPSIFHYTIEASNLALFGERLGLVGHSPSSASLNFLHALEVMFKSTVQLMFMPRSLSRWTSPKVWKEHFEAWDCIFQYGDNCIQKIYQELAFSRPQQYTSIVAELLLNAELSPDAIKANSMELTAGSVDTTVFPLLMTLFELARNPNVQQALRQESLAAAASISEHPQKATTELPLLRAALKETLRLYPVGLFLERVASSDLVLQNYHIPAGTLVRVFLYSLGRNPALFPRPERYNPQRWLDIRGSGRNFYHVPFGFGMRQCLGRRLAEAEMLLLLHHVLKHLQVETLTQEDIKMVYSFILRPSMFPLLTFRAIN

[3] = biological target: T3, CYP19 (aromatase) (Homo sapiens, UniProt P11511); assay: Inhibition of human placental CYP19 using [1beta-3H]androstenedione as substrate at 2 uM by 3H2O-method; conditions: human placental CYP19, probe [1beta-3H]androstenedione
T3 sequence (P11511 whole entry): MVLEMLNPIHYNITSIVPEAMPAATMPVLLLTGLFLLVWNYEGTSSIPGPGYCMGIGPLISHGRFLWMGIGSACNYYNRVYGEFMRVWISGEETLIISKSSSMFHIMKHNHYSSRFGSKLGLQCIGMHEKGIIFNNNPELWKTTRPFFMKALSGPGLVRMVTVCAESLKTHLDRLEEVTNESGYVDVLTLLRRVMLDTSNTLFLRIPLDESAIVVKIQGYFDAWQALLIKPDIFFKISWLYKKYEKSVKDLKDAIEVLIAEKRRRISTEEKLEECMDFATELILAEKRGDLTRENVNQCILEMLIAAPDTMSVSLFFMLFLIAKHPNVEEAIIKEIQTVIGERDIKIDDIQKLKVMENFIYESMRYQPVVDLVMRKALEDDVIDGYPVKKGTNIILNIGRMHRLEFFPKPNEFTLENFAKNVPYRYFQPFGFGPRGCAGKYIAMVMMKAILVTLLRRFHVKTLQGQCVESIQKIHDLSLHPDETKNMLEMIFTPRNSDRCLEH

[4] = biological target: T4, CYP17 (Homo sapiens, UniProt P05093); assay: Inhibition of human CYP17 expressed in Escherichia coli using progesterone as substrate at 2 uM; conditions: probe progesterone
T4 sequence (P05093 whole entry): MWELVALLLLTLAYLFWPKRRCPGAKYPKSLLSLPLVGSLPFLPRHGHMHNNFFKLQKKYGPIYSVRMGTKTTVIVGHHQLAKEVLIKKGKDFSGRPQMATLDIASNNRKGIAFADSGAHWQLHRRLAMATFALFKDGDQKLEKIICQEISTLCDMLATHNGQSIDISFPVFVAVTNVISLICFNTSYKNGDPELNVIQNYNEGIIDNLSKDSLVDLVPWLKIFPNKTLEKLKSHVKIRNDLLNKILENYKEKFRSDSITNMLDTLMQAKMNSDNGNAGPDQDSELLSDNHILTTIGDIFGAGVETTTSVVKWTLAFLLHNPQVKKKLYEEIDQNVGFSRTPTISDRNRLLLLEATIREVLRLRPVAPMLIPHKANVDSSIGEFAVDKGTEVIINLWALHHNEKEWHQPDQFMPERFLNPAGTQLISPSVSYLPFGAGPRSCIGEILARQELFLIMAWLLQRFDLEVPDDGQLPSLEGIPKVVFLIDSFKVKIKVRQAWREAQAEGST

[5] = tested on: V79MZh; assay: Selectivity ratio of IC50 for human CYP17 expressed in Escherichia coli to IC50 for human CYP11B1 expressed in hamster V79MZh cells
[6] = tested on: V79MZh; assay: Selectivity ratio of IC50 for human placental CYP19 to IC50 for human CYP11B1 expressed in hamster V79MZh cells; assay type: cell-based
[7] = tested on: Salmonella typhimurium; assay: Mutagenicity in Salmonella typhimurium TA7001/7002/7003/7004/7005/7006 up to 100 uM by Ames II assay; assay type: toxicity, organism-based; conditions: salmonella enterica subsp. enterica serovar typhimurium
[8] = tested on: Salmonella typhimurium; assay: Mutagenicity in Salmonella typhimurium TA98 up to 100 uM by Ames II assay; assay type: toxicity, organism-based; conditions: salmonella enterica subsp. enterica serovar typhimurium
[9] = Half life in human liver S9 fraction by LC-MS/MS analysis; assay type: ADME, subcellular
[10] = tested on: Salmonella typhimurium; assay: Mutagenicity in Salmonella typhimurium TA7001/7002/7003/7004/7005/7006 up to 100 uM by Ames II assay in presence of S9 fraction; assay type: toxicity, organism-based; conditions: salmonella enterica subsp. enterica serovar typhimurium
[11] = tested on: Salmonella typhimurium; assay: Mutagenicity in Salmonella typhimurium TA98 up to 100 uM by Ames II assay in presence of S9 fraction; assay type: toxicity, organism-based; conditions: salmonella enterica subsp. enterica serovar typhimurium
[12] = Half life in human plasma by LC-MS/MS analysis; assay type: ADME, cell-free

SMILES	IC50 [1] [nM]	IC50 [2] [nM]	other results
O=S(=O)(c1ccc(Cl)cc1)N1CCCc2cc(-c3cccnc3)ccc21	469	137	–
O=S(=O)(c1ccc2ccccc2c1)N1CCCc2cc(-c3cccnc3)ccc21	–	663	–
Cc1cccc(S(=O)(=O)N2CCCc3cc(-c4cccnc4)ccc32)c1	205	26	inhibition at 2 µM [3]: 29%; inhibition at 2 µM [4]: 9%; Ratio IC50 [5]: > 60; Ratio IC50 [6]: > 60
COc1cccc(S(=O)(=O)N2CCc3cc(-c4cccnc4)cnc32)c1	–	587	–
O=S(=O)(c1cccc(F)c1)N1CCc2cc(-c3cccnc3)ccc21	850	327	–
O=S(=O)(c1cccc(Cl)c1)N1CCCc2cc(-c3cccnc3)ccc21	344	62	–
O=S(=O)(C1CCCCC1)N1CCCc2cc(-c3cccnc3)ccc21	–	1170	–
COc1cccc(S(=O)(=O)N2CCCc3cc(-c4cccnc4)ccc32)c1	85	28	inhibition at 2 µM [3]: 32%; inhibition at 2 µM [4]: 11%; Ratio IC50 [5]: > 60; Ratio IC50 [6]: > 60
N#Cc1ccc(S(=O)(=O)N2CCCc3cc(-c4cccnc4)ccc32)cc1	557	114	–
O=S(=O)(c1cccc(OC(F)(F)F)c1)N1CCCc2cc(-c3cccnc3)ccc21	322	382	–
O=S(=O)(c1cccc(F)c1)N1CCCc2cc(-c3cccnc3)ccc21	196	71	–
COc1ccc(S(=O)(=O)N2CCCc3cc(-c4cccnc4)ccc32)cc1	519	334	–
COc1cccc(S(=O)(=O)N(C)c2ccc(-c3cccnc3)cc2)c1	239	68	–
O=S(=O)(c1ccc(OC(F)(F)F)cc1)N1CCCc2cc(-c3cccnc3)ccc21	–	929	–
COc1cccc(S(=O)(=O)Nc2ccc(-c3cccnc3)cc2)c1	850	188	–
COc1cccc(S(=O)(=O)N2CCCc3cc(Cc4ccncc4)ccc32)c1	5	6	inhibition at 2 µM [3]: 88%; inhibition at 2 µM [4]: 14%; Ratio IC50 [5]: > 60; Ratio IC50 [6]: > 60
COc1cccc(S(=O)(=O)N(Cc2ccccc2)c2ccc(-c3cccnc3)cc2)c1	–	2000	–
COc1cccc(S(=O)(=O)N2CCCc3cc(Cc4cccnc4)ccc32)c1	8	5	Activity [7]: Non-toxic; Activity [8]: Non-toxic; inhibition at 2 µM [3]: 26%; half-life [9]: 16 min; Activity [10]: Non-toxic; inhibition at 2 µM [4]: 9%; Activity [11]: Non-toxic; Ratio IC50 [5]: > 60; half-life [12]: > 150 min; Ratio IC50 [6]: > 60
COc1cccc(S(=O)(=O)N2CCCc3cc(-c4ccncc4)ccc32)c1	–	> 5000	–
O=S(=O)(c1cccc(C(F)(F)F)c1)N1CCCc2cc(-c3cccnc3)ccc21	607	309	–
O=S(=O)(c1ccc(C(F)(F)F)cc1)N1CCCc2cc(-c3cccnc3)ccc21	–	1220	–
N#Cc1cccc(S(=O)(=O)N2CCCc3cc(-c4cccnc4)ccc32)c1	429	65	–
Cc1ccc(S(=O)(=O)N2CCCc3cc(-c4cccnc4)ccc32)cc1	555	278	–
O=S(=O)(c1ccccc1)N1CCCc2cc(-c3cccnc3)ccc21	295	65	–
O=S(=O)(c1cccs1)N1CCCc2cc(-c3cccnc3)ccc21	259	60	–
COc1cccc(S(=O)(=O)N2CCc3cc(-c4cccnc4)ccc32)c1	251	111	–
CC(C)(C(=O)c1cccnc1)c1cccnc1 [METYRAPONE]	–	–	half-life [9]: 49 min
O=S(=O)(c1ccc(F)cc1)N1CCCc2cc(-c3cccnc3)ccc21	260	49	–
COc1cccc(S(=O)(=O)N2CCc3cc(-c4ccncc4)cnc32)c1	–	1750	–
